# Laboratory results reported in a polymer gas permeability compilation.
CH4 permeability,CO2 permeability,H2 permeability,N2 permeability,O2 permeability,Structure (SMILES)
14.6 Barrer,271 Barrer,,14.1 Barrer,,*c1ccc(C2(c3ccc(N4C(=O)c5ccc(C(c6ccc7c(c6)C(=O)N(*)C7=O)(C(F)(F)F)C(F)(F)F)cc5C4=O)cc3)c3cc(C(C)(C)C)ccc3-c3ccc(C(C)(C)C)cc32)cc1 (repeat unit)
0.225 Barrer,7.69 Barrer,16.9 Barrer,0.21 Barrer,1.55 Barrer,*Oc1cc(C)c(C2(c3cc(C)c(Oc4ccc(S(=O)(=O)c5ccc(*)cc5)cc4)cc3C)OC(=O)c3ccccc32)cc1C (repeat unit)
,7.7 Barrer,,0.26 Barrer,2 Barrer,*Oc1ccc(S(=O)(=O)c2ccc(Oc3ccc(C(C)(C)c4ccc(*)c(C(OC)(C(F)(F)F)C(F)(F)F)c4)cc3C(OC)(C(F)(F)F)C(F)(F)F)cc2)cc1 (repeat unit)
0.0366 Barrer,1.5 Barrer,7.25 Barrer,0.0507 Barrer,0.38 Barrer,*Oc1ccc(S(=O)(=O)c2ccc(Oc3ccc4cc(*)ccc4c3)cc2)cc1 (repeat unit)
0.179 Barrer,4.3 Barrer,,0.196 Barrer,1.1 Barrer,*Oc1ccc(S(=O)(=O)c2ccc(Oc3ccc(Oc4ccc(*)cc4)cc3)cc2)cc1 (repeat unit)
,,4.36 Barrer,0.0355 Barrer,0.251 Barrer,*c1ccc(N2C(=O)c3ccc(C(=O)Oc4ccc(C(c5ccc(OC(=O)c6ccc7c(c6)C(=O)N(*)C7=O)cc5)(C(F)(F)F)C(F)(F)F)cc4)cc3C2=O)cc1 (repeat unit)
1450 Barrer,5300 Barrer,2500 Barrer,650 Barrer,1300 Barrer,*C(=C(*)c1ccc2c(ccc3ccccc32)c1)c1ccccc1 (repeat unit)
0.25 Barrer,5.6 Barrer,28 Barrer,0.24 Barrer,1.3 Barrer,*Oc1ccc(-c2ccc(Oc3ccc(S(=O)(=O)c4ccc(*)cc4)cc3)cc2)cc1 (repeat unit)
0.0727 Barrer,3.12 Barrer,10.8 Barrer,0.11 Barrer,0.868 Barrer,*Oc1ccc(C2(c3ccc(Oc4ccc(S(=O)(=O)c5ccc(*)cc5)cc4)c(C)c3)OC(=O)c3ccccc32)cc1C (repeat unit)
0.34 Barrer,8.2 Barrer,20 Barrer,0.61 Barrer,2.5 Barrer,*Oc1ccc(-c2ccc(Oc3c(F)c(F)c(COC(C4CCCC(C(OCc5c(F)c(F)c(*)c(F)c5F)(C(F)(F)F)C(F)(F)F)C4)(C(F)(F)F)C(F)(F)F)c(F)c3F)cc2)cc1 (repeat unit)
0.54 Barrer,11.4 Barrer,11 Barrer,0.31 Barrer,1.44 Barrer,*=CC1CC(C=*)C2C(=O)N(c3ccccc3)C(=O)C12 (repeat unit)
,120 Barrer,,9.1 Barrer,29 Barrer,*C(=C(*)c1ccc([Si](C)(C)CCCCCCCC)cc1)c1ccc(C(C)C)cc1 (repeat unit)
0.0164 Barrer,0.978 Barrer,,0.0307 Barrer,0.26 Barrer,*c1ccc(Cc2ccc(N3C(=O)c4ccc(-c5ccc6c(c5)C(=O)N(*)C6=O)cc4C3=O)c(Cl)c2)cc1Cl (repeat unit)
0.217 Barrer,10.7 Barrer,38.2 Barrer,0.473 Barrer,2.89 Barrer,*c1ccc(C(C)(C)c2cccc(N3C(=O)c4ccc(C(c5ccc6c(c5)C(=O)N(*)C6=O)(C(F)(F)F)C(F)(F)F)cc4C3=O)c2)cc1 (repeat unit)
0.77 Barrer,29.3 Barrer,,1.33 Barrer,6.17 Barrer,*c1ccc(Oc2cc3c(cc2C)OC2(CC3(C)C)CC(C)(C)c3cc(Oc4ccc(*)cc4)c(C)cc3O2)cc1 (repeat unit)
0.56 Barrer,26.6 Barrer,,1.04 Barrer,5.68 Barrer,*c1ccc2c(c1)Oc1ccc(C3(c4ccc5c(c4)Oc4ccc(*)cc4O5)c4ccccc4-c4ccccc43)cc1O2 (repeat unit)
1.1 Barrer,20 Barrer,52 Barrer,1.1 Barrer,5.6 Barrer,*Oc1c(C)cc(C(C)(C)c2cc(C)c(Oc3ccc(C(=O)c4ccc(*)cc4)cc3)c(C)c2)cc1C (repeat unit)

CH4 permeability,CO2 permeability,H2 permeability,N2 permeability,O2 permeability,Structure (SMILES)
0.148 Barrer,4 Barrer,,0.139 Barrer,0.93 Barrer,*Oc1ccc(C(C)(C)c2ccc(OC(=O)c3cccc(C(=O)Oc4cc(-c5cc(*)cc6ccccc56)c5ccccc5c4)c3)cc2)cc1 (repeat unit)
22400 Barrer,32800 Barrer,20700 Barrer,9200 Barrer,11400 Barrer,*C(=C(*)c1ccc2c(c1)C(C)(C)CC2(C)C)c1ccc(Br)cc1 (repeat unit)
0.818 Barrer,22.4 Barrer,,0.913 Barrer,4.73 Barrer,*c1c(C)cc(Cc2cc(C)c(N3C(=O)c4ccc(-c5ccc6c(c5)C(=O)N(*)C6=O)cc4C3=O)c(C)c2)cc1C (repeat unit)
4.8 Barrer,74.4 Barrer,,2 Barrer,3.9 Barrer,*CC(*)(C)C(=O)OCCOCCOCCOCC (repeat unit)
0.05 Barrer,2.38 Barrer,3.18 Barrer,0.1 Barrer,0.61 Barrer,*c1ccc2c(-c3c(OC(C)=O)ccc4cc(N5C(=O)c6ccc(Oc7ccc8c(c7)C(=O)N(*)C8=O)cc6C5=O)ccc34)c(OC(C)=O)ccc2c1 (repeat unit)
0.88 Barrer,32 Barrer,72 Barrer,1.4 Barrer,7.2 Barrer,*c1ccc(-c2cc(C)c(-c3ccc(*)cc3C)cc2C)c(C)c1 (repeat unit)
,,6.32 Barrer,0.032 Barrer,0.296 Barrer,*c1ccc(Cc2ccc(N3C(=O)c4ccc(S(=O)(=O)c5ccc6c(c5)C(=O)N(*)C6=O)cc4C3=O)cc2)cc1 (repeat unit)
0.05 Barrer,1.8 Barrer,8.15 Barrer,0.0735 Barrer,0.5 Barrer,*Oc1ccc(S(=O)(=O)c2ccc(Oc3ccc4ccc(*)cc4c3)cc2)cc1 (repeat unit)
0.853 Barrer,21.5 Barrer,54 Barrer,0.89 Barrer,5.63 Barrer,*Oc1c(Br)cc(C(C)(C)c2cc(Br)c(OC(=O)c3cc(C(*)=O)cc(C(C)(C)C)c3)c(Br)c2)cc1Br (repeat unit)
0.455 Barrer,16.5 Barrer,,0.965 Barrer,4.83 Barrer,*c1ccc(Oc2ccc(C3(c4ccc(Oc5ccc(N6C(=O)c7ccc(C(c8ccc9c(c8)C(=O)N(*)C9=O)(C(F)(F)F)C(F)(F)F)cc7C6=O)cc5)cc4)OC(=O)c4ccccc43)cc2)cc1 (repeat unit)
622 Barrer,8890 Barrer,4520 Barrer,442 Barrer,1620 Barrer,*Oc1cc2c(cc1O*)C1(c3ccccc3-2)c2ccccc2-c2cc3c(cc21)Oc1c(C#N)c(*)c(*)c(C#N)c1O3 (repeat unit)
0.22 Barrer,8.37 Barrer,,0.37 Barrer,1.72 Barrer,*c1ccc(Sc2ccc(Sc3ccc(Sc4ccc(N5C(=O)c6ccc(C(c7ccc8c(c7)C(=O)N(*)C8=O)(C(F)(F)F)C(F)(F)F)cc6C5=O)cc4)cc3)cc2)cc1 (repeat unit)
0.65 Barrer,17 Barrer,28 Barrer,0.69 Barrer,3.5 Barrer,*c1ccc(Oc2ccc(C(*)(c3ccccc3)C(F)(F)F)cc2)cc1 (repeat unit)
0.703 Barrer,22.8 Barrer,55.4 Barrer,1.3 Barrer,6.5 Barrer,*c1ccc(Oc2ccc(C(c3ccc(Oc4ccc(N5C(=O)c6ccc(C(c7ccc8c(c7)C(=O)N(*)C8=O)(C(F)(F)F)C(F)(F)F)cc6C5=O)cc4C(F)(F)F)cc3)(C(F)(F)F)C(F)(F)F)cc2)c(C(F)(F)F)c1 (repeat unit)
,15 Barrer,,0.53 Barrer,3.2 Barrer,*c1ccc2c(c1)-c1nc3ccc(-c4ccc5c(c4)nc4n5C(=O)c5cc(C(c6ccc7c(c6)C(=O)N(c6cc(C(c8ccc(O)c(N9C(=O)c%10ccc(C(*)(C(F)(F)F)C(F)(F)F)cc%10C9=O)c8)(C(F)(F)F)C(F)(F)F)ccc6O)C7=O)(C(F)(F)F)C(F)(F)F)ccc5-4)cc3n1C2=O (repeat unit)
,,9.33 Barrer,0.096 Barrer,0.53 Barrer,*c1ccc(-c2ccc(N3C(=O)c4ccc([Si](C)(C)c5ccc6c(c5)C(=O)N(*)C6=O)cc4C3=O)c(OC)c2)cc1OC (repeat unit)
0.223 Barrer,6.68 Barrer,,0.36 Barrer,2.29 Barrer,*OC(=O)Oc1c(Cl)cc(C(C)(C)c2cc(Cl)c(*)c(Cl)c2)cc1Cl (repeat unit)

Structure (SMILES),CH4 permeability,CO2 permeability,H2 permeability,N2 permeability,O2 permeability
*/C(C)=C(/*)[Si](C)(C)CCCCCCCC (repeat unit),13 Barrer,100 Barrer,47 Barrer,19 Barrer,23 Barrer
*C(C)=C(*)CCC (repeat unit),21 Barrer,120 Barrer,160 Barrer,12 Barrer,39 Barrer
*CC(*)OCC1CC2CC1C1CCCC21 (repeat unit),,2.85 Barrer,,0.13 Barrer,0.81 Barrer
*CC(*)OC1CCCCC1 (repeat unit),,13.6 Barrer,,0.99 Barrer,3.69 Barrer
*CC(*)(C)C(=O)OC(C)(C)C (repeat unit),0.719 Barrer,15.1 Barrer,62.2 Barrer,0.768 Barrer,4.53 Barrer
